# According to PMC10790790, “Viscosity-dependent determinants of Campylobacter jejuni impacting the velocity of flagellar motility” (mBio, 2023):
# Tests used:
# WspR [1] = molecular target: T1, WspR (Pseudomonas aeruginosa, UniProt Q9HXT9); assay: DRaCALA on nitrocellulose; also TLC of c-di-GMP synthesis; assay type: biochemical; conditions: labelled compound ([alpha-32P]GTP); 10 mM Tris-HCl pH 8, 100 mM NaCl, 5 mM MgCl2 (DRaCALA); 10 mM MgCl2, room temperature (TLC)
# T1 construct: codon 2 to penultimate codon, from pVL791, C-terminal Myc-6xHis tag kept, pBAD/myc-HisA (pDAR6535), E. coli Top10
# T1 sequence (Q9HXT9 entry or part of it): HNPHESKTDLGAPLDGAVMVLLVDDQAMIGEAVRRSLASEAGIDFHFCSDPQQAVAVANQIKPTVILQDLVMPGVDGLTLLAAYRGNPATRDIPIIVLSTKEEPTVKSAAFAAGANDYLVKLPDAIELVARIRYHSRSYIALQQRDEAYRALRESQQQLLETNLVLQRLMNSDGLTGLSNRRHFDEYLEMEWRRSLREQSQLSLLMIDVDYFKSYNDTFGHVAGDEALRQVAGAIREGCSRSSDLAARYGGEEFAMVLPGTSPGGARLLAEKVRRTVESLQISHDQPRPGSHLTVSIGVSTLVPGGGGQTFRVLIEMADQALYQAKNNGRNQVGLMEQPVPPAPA
# CbrR = molecular target: T2, CbrR (Campylobacter jejuni, UniProt Q0PAM5); assay: DRaCALA on nitrocellulose; assay type: binding; conditions: 10 mM Tris-HCl pH 8, 100 mM NaCl, 5 mM MgCl2
# T2 construct: codon 2 to penultimate codon, C-terminal Myc-6xHis tag kept, pBAD/myc-HisA (pDAR6203), E. coli Top10
# T2 sequence (Q0PAM5 entry or part of it): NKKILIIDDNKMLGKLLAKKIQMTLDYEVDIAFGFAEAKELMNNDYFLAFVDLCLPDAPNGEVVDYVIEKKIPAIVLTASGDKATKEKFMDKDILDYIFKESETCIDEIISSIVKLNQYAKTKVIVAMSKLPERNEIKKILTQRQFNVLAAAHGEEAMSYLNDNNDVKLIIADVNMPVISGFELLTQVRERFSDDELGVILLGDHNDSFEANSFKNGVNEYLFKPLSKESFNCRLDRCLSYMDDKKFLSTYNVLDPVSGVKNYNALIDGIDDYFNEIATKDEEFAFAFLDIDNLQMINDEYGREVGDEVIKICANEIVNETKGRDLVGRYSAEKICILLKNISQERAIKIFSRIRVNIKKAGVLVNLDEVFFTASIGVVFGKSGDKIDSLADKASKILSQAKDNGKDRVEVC
# WspR [2] = molecular target: T1, WspR; assay: DRaCALA on nitrocellulose; assay type: biochemical; conditions: labelled compound ([32P]c-di-GMP made by WspR); 10 mM Tris-HCl pH 8, 100 mM NaCl, 5 mM MgCl2
Structure (SMILES),DRaCALA on nitrocellulose; also TLC of c-di-GMP synthesis (WspR [1]),DRaCALA on nitrocellulose (CbrR; labelled compound ([alpha-32P]GTP)),DRaCALA on nitrocellulose (WspR [2]),DRaCALA on nitrocellulose (CbrR; labelled compound ([32P]c-di-GMP made by WspR))
Nc1nc2c(ncn2[C@@H]2O[C@H](COP(=O)(O)OP(=O)(O)OP(=O)(O)O)[C@@H](O)[C@H]2O)c(=O)[nH]1 [GTP],"recombinant WspR and CbrR bound both GTP and c-di-GMP, but VidA and VidB did not","recombinant WspR and CbrR bound both GTP and c-di-GMP, but VidA and VidB did not",,
Nc1nc2c(ncn2[C@@H]2O[C@@H]3COP(=O)(O)O[C@H]4[C@@H](O)[C@H](n5cnc6c(=O)[nH]c(N)nc65)O[C@@H]4COP(=O)(O)O[C@H]3[C@H]2O)c(=O)[nH]1 [c-di-GMP],,,"recombinant WspR and CbrR bound both GTP and c-di-GMP, but VidA and VidB did not","recombinant WspR and CbrR bound both GTP and c-di-GMP, but VidA and VidB did not"
